Test results reported in US7129273B2, “Dicreatine Malate” (Creative Compounds, LLC, priority 2003, dated 2006).

Tests used:
[1] = metabolic properties and overall effectiveness as a supplement, compared with other creatine forms; type: in vivo
burn victims = conditions: compared with molar equivalents of ornithine base and alpha-ketoglutaric acid taken separately; cited from earlier work
ATP production = assay: production of ATP (high energy phosphate molecules); conditions: compared with additive effects of creatine and malic acid taken separately
[2] = absorption / bioavailability after oral supplementation; type: in vivo
[3] = problems associated with creatine supplementation (cramping, bloating); type: in vivo; conditions: compared with other creatine supplementation
[4] = compared with any other form of creatine or malic acid supplement currently available
[5] = compared to creatine monohydrate

## CN(CC(=O)O)C(=N)N.O=C(O)CC(O)C(=O)O [monocreatine malate, reference compound]
[1]; comparison with dicreatine malate, inventors' experience
  effect compared with dicreatine malate: inferior to the dicreatine malate

## NCCC[C@H](N)C(=O)O [ornithine alpha-ketoglutarate]
Burn victims
  anti-catabolic effect: strong anti-catabolic effect on burn victims far greater in effect than what is produced by merely combining the effects of the molar equivalents

## dicreatine malate
ATP production
  production of ATP: increases the production of ATP to a much greater extent than what would be expected by the mere additive effects
[2]; [4]
  absorption: more readily absorbed
[2]; compared with individual bioavailabilities of creatine monohydrate and malic acid
  bioavailabilities of the creatine and malic acid moieties: increase the bioavailablities of both the creatine and malic acid moieties
[1]; [5]
  decreasing adipose stores: enhanced efficacy for decreasing adipose stores
  increasing cell volumization: enhanced efficacy for increasing cell volumization
  increasing muscle mass: enhanced efficacy for increasing muscle mass
  increasing overall strength and endurance: enhanced efficacy for increasing for increasing overall strength and endurance
[1]; [4]
  effectiveness: much more effective
[3]
  problems associated with creatine supplementation (cramping, bloating, bioavailability issues): decreasing some of the problems associated with other creatine supplementation
